Results published in PubChem BioAssay (NCI).
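Following 48 hours of exposure in 96-well plates, responses at five concentrations were used to interpolate endpoints linearly. Definition used: TGI = concentration required for complete inhibition of growth.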

Assays:
Test in all cases: DTP human tumour cell line panel, 48 h
NCI-H226 lung = test system: NCI-H226 lung
M19-MEL melanoma = test system: M19-MEL melanoma
RXF 393 renal = test system: RXF 393 renal
UACC-62 melanoma = test system: UACC-62 melanoma
SF-268 CNS = test system: SF-268 CNS
DMS 273 small cell lung = test system: DMS 273 small cell lung
U251 CNS = test system: U251 CNS
HT29 colon = test system: HT29 colon
IGROV1 ovarian = test system: IGROV1 ovarian
NCI-H460 lung = test system: NCI-H460 lung
A549 NSCLC = test system: A549 NSCLC
SK-OV-3 ovarian = test system: SK-OV-3 ovarian
EKVX NSCLC = test system: EKVX NSCLC
NCI-H23 lung = test system: NCI-H23 lung
SNB-19 CNS = test system: SNB-19 CNS
SR leukemia = test system: SR leukemia
KM12 colon = test system: KM12 colon
HOP-62 NSCLC = test system: HOP-62 NSCLC
SK-MEL-28 melanoma = test system: SK-MEL-28 melanoma
CCRF-CEM leukemia = test system: CCRF-CEM leukemia
HL-60(TB) leukemia = test system: HL-60(TB) leukemia
UO-31 renal = test system: UO-31 renal
NCI-H522 lung = test system: NCI-H522 lung
SNB-78 CNS = test system: SNB-78 CNS
A498 renal = test system: A498 renal
MOLT-4 leukemia = test system: MOLT-4 leukemia
TK-10 renal = test system: TK-10 renal
OVCAR-5 ovarian = test system: OVCAR-5 ovarian
HOP-92 NSCLC = test system: HOP-92 NSCLC
M14 melanoma = test system: M14 melanoma
K-562 leukemia = test system: K-562 leukemia
OVCAR-3 ovarian = test system: OVCAR-3 ovarian
MDA-N = test system: MDA-N
MDA-MB-435 = test system: MDA-MB-435
CAKI-1 renal = test system: CAKI-1 renal
UACC-257 melanoma = test system: UACC-257 melanoma
NCI/ADR-RES ovarian = test system: NCI/ADR-RES ovarian
OVCAR-4 ovarian = test system: OVCAR-4 ovarian
COLO 205 colon = test system: COLO 205 colon
HCC-2998 colon = test system: HCC-2998 colon
SF-295 CNS = test system: SF-295 CNS
LOX IMVI melanoma = test system: LOX IMVI melanoma
SK-MEL-5 melanoma = test system: SK-MEL-5 melanoma
PC-3 prostate = test system: PC-3 prostate
SF-539 CNS = test system: SF-539 CNS
MCF7 breast = test system: MCF7 breast
786-0 renal = test system: 786-0 renal
SK-MEL-2 melanoma = test system: SK-MEL-2 melanoma
DU-145 prostate = test system: DU-145 prostate
RPMI-8226 leukemia = test system: RPMI-8226 leukemia
OVCAR-8 ovarian = test system: OVCAR-8 ovarian
BT-549 breast = test system: BT-549 breast
MDA-MB-231 breast = test system: MDA-MB-231 breast
T-47D breast = test system: T-47D breast
SW-620 colon = test system: SW-620 colon
HCT-15 colon = test system: HCT-15 colon
SNB-75 CNS = test system: SNB-75 CNS
MALME-3M melanoma = test system: MALME-3M melanoma
ACHN renal = test system: ACHN renal
HS 578T breast = test system: HS 578T breast
HCT-116 colon = test system: HCT-116 colon
SN12C renal = test system: SN12C renal
DMS 114 small cell lung = test system: DMS 114 small cell lung
LXFL 529 NSCLC = test system: LXFL 529 NSCLC
KM20L2 colon = test system: KM20L2 colon

For `N#CC1Sc2ccccc2-n2cccc21` (centres undefined), the TGI (NCI-H226 lung) was 87.6 µM, the TGI (M19-MEL melanoma) was > 100 µM and the TGI (RXF 393 renal) was 67.3 µM. For the same compound, the TGI (UACC-62 melanoma) was 99.2 µM, the TGI (SF-268 CNS) was 78.2 µM and the TGI (DMS 273 small cell lung) was > 100 µM. The TGI (U251 CNS) was > 100 µM, the TGI (HT29 colon) was > 100 µM and the TGI (IGROV1 ovarian) was > 100 µM. For the same compound, the TGI (NCI-H460 lung) was > 100 µM, the TGI (A549 NSCLC) was > 100 µM and the TGI (SK-OV-3 ovarian) was > 100 µM. For the same compound, the TGI (EKVX NSCLC) was > 100 µM, the TGI (NCI-H23 lung) was > 100 µM and the TGI (SNB-19 CNS) was > 100 µM. The TGI (SR leukemia) was > 100 µM, the TGI (KM12 colon) was > 100 µM and the TGI (HOP-62 NSCLC) was > 100 µM. The TGI (SK-MEL-28 melanoma) was > 100 µM, the TGI (CCRF-CEM leukemia) was > 100 µM and the TGI (HL-60(TB) leukemia) was 61.6 µM. The TGI (UO-31 renal) was 93.3 µM, the TGI (NCI-H522 lung) was > 100 µM and the TGI (SNB-78 CNS) was > 100 µM. The TGI (A498 renal) was > 100 µM, the TGI (MOLT-4 leukemia) was > 100 µM and the TGI (TK-10 renal) was > 100 µM. The TGI (OVCAR-5 ovarian) was > 100 µM, the TGI (HOP-92 NSCLC) was > 100 µM and the TGI (M14 melanoma) was > 100 µM. For the same compound, the TGI (K-562 leukemia) was 95.5 µM.

`C=C[C@@]1(C)CC2(C=C(CO)C(O)O2)Oc2c1c(=O)oc1cccc(C)c21` (some centres undefined) was tested, and the TGI (OVCAR-3 ovarian) was 9.66 µM, the TGI (MDA-N) was 15.2 µM and the TGI (NCI-H226 lung) was 35.5 µM. For the same compound, the TGI (MDA-MB-435) was 10.3 µM, the TGI (RXF 393 renal) was 8.86 µM and the TGI (UACC-62 melanoma) was 23.1 µM. For the same compound, the TGI (SF-268 CNS) was 12.2 µM, the TGI (CAKI-1 renal) was 15.6 µM and the TGI (UACC-257 melanoma) was 35 µM. It also gave a TGI (NCI/ADR-RES ovarian) of 10.2 µM, a TGI (U251 CNS) of 25.6 µM and a TGI (OVCAR-4 ovarian) of 12.8 µM. The TGI (HT29 colon) was 21.9 µM, the TGI (COLO 205 colon) was 26.9 µM and the TGI (HCC-2998 colon) was 40.1 µM. For the same compound, the TGI (IGROV1 ovarian) was 18.4 µM, the TGI (NCI-H460 lung) was 45.2 µM and the TGI (A549 NSCLC) was 68.7 µM. The TGI (SF-295 CNS) was > 75.1 µM, the TGI (LOX IMVI melanoma) was 13.7 µM and the TGI (SK-MEL-5 melanoma) was 25.3 µM. For the same compound, the TGI (SK-OV-3 ovarian) was 47.3 µM, the TGI (EKVX NSCLC) was 35.2 µM and the TGI (NCI-H23 lung) was 21.3 µM. It also gave a TGI (PC-3 prostate) of 32.7 µM, a TGI (SNB-19 CNS) of 33.2 µM and a TGI (SR leukemia) of 7.75 µM. It also gave a TGI (KM12 colon) of 33.9 µM, a TGI (SF-539 CNS) of 12 µM and a TGI (MCF7 breast) of 25.1 µM. It also gave a TGI (HOP-62 NSCLC) of 33.8 µM, a TGI (786-0 renal) of 3.8 µM and a TGI (SK-MEL-2 melanoma) of 21.7 µM. For the same compound, the TGI (SK-MEL-28 melanoma) was 25.5 µM, the TGI (DU-145 prostate) was 29.1 µM and the TGI (RPMI-8226 leukemia) was 3.82 µM. The TGI (OVCAR-8 ovarian) was 9.72 µM, the TGI (CCRF-CEM leukemia) was 7.98 µM and the TGI (BT-549 breast) was 14.2 µM. It also gave a TGI (MDA-MB-231 breast) of 23.9 µM, a TGI (HL-60(TB) leukemia) of 5.12 µM and a TGI (UO-31 renal) of 19 µM. It also gave a TGI (T-47D breast) of 44.6 µM, a TGI (SW-620 colon) of 3.74 µM and a TGI (HCT-15 colon) of 7.17 µM. The TGI (SNB-75 CNS) was 28.8 µM, the TGI (MALME-3M melanoma) was 26.7 µM and the TGI (NCI-H522 lung) was 4.82 µM. For the same compound, the TGI (A498 renal) was 51.8 µM, the TGI (ACHN renal) was 21.2 µM and the TGI (HS 578T breast) was 42.9 µM. The TGI (MOLT-4 leukemia) was 5.78 µM, the TGI (TK-10 renal) was 43.5 µM and the TGI (OVCAR-5 ovarian) was 36 µM. For the same compound, the TGI (HCT-116 colon) was 3.65 µM, the TGI (HOP-92 NSCLC) was 40.2 µM and the TGI (M14 melanoma) was 12.1 µM. It also gave a TGI (SN12C renal) of 15.9 µM and a TGI (K-562 leukemia) of 7.46 µM.

With `COc1ccc(C2C(Cl)C(=O)N2NC(=O)c2ccccc2O)cc1` (centres undefined) the TGI (OVCAR-3 ovarian) was > 100 µM, the TGI (M19-MEL melanoma) was > 100 µM and the TGI (RXF 393 renal) was > 100 µM. The TGI (UACC-62 melanoma) was > 100 µM, the TGI (SF-268 CNS) was > 100 µM and the TGI (UACC-257 melanoma) was > 100 µM. The TGI (U251 CNS) was > 100 µM, the TGI (OVCAR-4 ovarian) was > 100 µM and the TGI (HT29 colon) was > 100 µM. For the same compound, the TGI (COLO 205 colon) was > 100 µM, the TGI (IGROV1 ovarian) was > 100 µM and the TGI (NCI-H460 lung) was > 100 µM. The TGI (A549 NSCLC) was > 100 µM, the TGI (DMS 114 small cell lung) was > 100 µM and the TGI (SF-295 CNS) was > 100 µM. For the same compound, the TGI (SK-MEL-5 melanoma) was > 100 µM, the TGI (SK-OV-3 ovarian) was > 100 µM and the TGI (EKVX NSCLC) was > 100 µM. The TGI (NCI-H23 lung) was > 100 µM, the TGI (SNB-19 CNS) was > 100 µM and the TGI (LXFL 529 NSCLC) was > 100 µM. The TGI (SR leukemia) was > 100 µM, the TGI (KM20L2 colon) was > 100 µM and the TGI (KM12 colon) was > 100 µM. For the same compound, the TGI (SF-539 CNS) was > 100 µM, the TGI (HOP-62 NSCLC) was > 100 µM and the TGI (SK-MEL-2 melanoma) was > 100 µM. The TGI (SK-MEL-28 melanoma) was > 100 µM, the TGI (RPMI-8226 leukemia) was > 100 µM and the TGI (OVCAR-8 ovarian) was > 100 µM. The TGI (CCRF-CEM leukemia) was > 100 µM, the TGI (HL-60(TB) leukemia) was > 100 µM and the TGI (UO-31 renal) was > 100 µM. For the same compound, the TGI (SW-620 colon) was > 100 µM, the TGI (SNB-75 CNS) was > 100 µM and the TGI (MALME-3M melanoma) was > 100 µM. The TGI (NCI-H522 lung) was > 100 µM, the TGI (MOLT-4 leukemia) was > 100 µM and the TGI (TK-10 renal) was > 100 µM. The TGI (HCT-116 colon) was > 100 µM, the TGI (HOP-92 NSCLC) was > 100 µM and the TGI (M14 melanoma) was > 100 µM. The TGI (SN12C renal) was > 100 µM and the TGI (K-562 leukemia) was > 100 µM.
